Reference: patent US20260297070A1, “CYCLIC [COMPOUND LEFT OUT] WRN INHIBITORS” (Nimbus Wadjet, Inc., priority 2023, published 2026)

Target: T1, human Werner helicase (WRN-BV08, Uniprot Q14191, amino acids 517-1235 with L1074F point mutation) (Homo sapiens, UniProt Q14191, L1074F)
T1 construct: Uniprot Q14191, amino acids 517-1235 with L1074F point mutation; TEV-cleavable 8×His (C, cleaved yes); made in house; host or cells: Sf9 insect cells (baculovirus)
Experiment: WRN (BV08) ADP-Glo Assay
Type: biochemical
Settings: 0.15 nM WRN, 5 μM ATP, 0.1 nM DNA duplex, 15 min preincubation, 60 min at 25° C., pH 7.5, 1% DMSO; read-out: ADP-Glo_hWRN_IC50
Procedure, shortened: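 ADP produced by WRN helicase fragment 517-1235 (L1074F, baculovirus/Sf9, untagged) read by ADP-Glo luminescence after 60 min at 25 °C with 5 μM ATP and 0.1 nM duplex DNA, following 15 min compound preincubation. Final enzyme 0.15 nM in Bicine pH 7.5 buffer, 1% DMSO; 20 μM NSC-617145 defined full inhibition.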

T1 sequence (Q14191 with tags, fused parts or gaps L1074F limits assumed): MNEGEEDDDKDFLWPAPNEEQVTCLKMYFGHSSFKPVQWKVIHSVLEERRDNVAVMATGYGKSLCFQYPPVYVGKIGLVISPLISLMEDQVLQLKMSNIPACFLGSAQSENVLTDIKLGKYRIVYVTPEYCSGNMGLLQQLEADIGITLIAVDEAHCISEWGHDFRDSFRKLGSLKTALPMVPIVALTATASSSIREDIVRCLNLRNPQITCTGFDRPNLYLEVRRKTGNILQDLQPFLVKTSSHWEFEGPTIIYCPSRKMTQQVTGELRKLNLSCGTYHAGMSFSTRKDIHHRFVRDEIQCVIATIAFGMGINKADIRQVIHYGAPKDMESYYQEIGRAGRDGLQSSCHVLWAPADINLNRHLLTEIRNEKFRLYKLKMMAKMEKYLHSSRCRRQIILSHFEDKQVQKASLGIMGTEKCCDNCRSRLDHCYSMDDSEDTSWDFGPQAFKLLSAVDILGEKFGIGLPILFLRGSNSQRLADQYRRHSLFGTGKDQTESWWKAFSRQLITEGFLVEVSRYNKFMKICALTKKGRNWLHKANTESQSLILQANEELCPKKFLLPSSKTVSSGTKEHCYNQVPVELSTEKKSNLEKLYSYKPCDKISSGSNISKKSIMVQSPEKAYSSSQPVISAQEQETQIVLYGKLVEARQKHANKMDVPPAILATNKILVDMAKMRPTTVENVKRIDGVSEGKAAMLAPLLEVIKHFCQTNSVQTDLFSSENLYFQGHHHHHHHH

IC50, 500 to 5000 nM:
O=C(Cc1ccc(-c2ccc(F)cc2)cc1)N(Cc1nc(C2CC2)cs1)C1C=CS(=O)(=O)C1 (stereo not shown) [I-88, N-[(4-cyclopropyl-1,3-thiazol-2-yl)methyl]-N-(1,1-dioxo-2,3-dihydro-1lambda6-thiophen-3-yl)-2-{4′-fluoro-[1,1′-biphenyl]-4-yl}acetamide]
CN(C)c1cc(CN(C(=O)Cc2ccc(S(F)(F)(F)(F)F)cc2)C2C=CS(=O)(=O)C2)ccn1 (stereo not shown) [I-89, N-{[2-(dimethylamino)pyridin-4-yl]methyl}-N-(1,1-dioxo-2,3-dihydro-1lambda6-thiophen-3-yl)-2-[4-(pentafluoro-lambda6-sulfanyl)phenyl]acetamide]
Cc1cccn1-c1ccc(CC(=O)N(Cc2ccnc(C3(O)CC3)c2)C2C=CS(=O)(=O)C2)c(F)c1 (stereo not shown) [I-90, N-(1,1-dioxo-2,3-dihydro-1lambda6-thiophen-3-yl)-2-[2-fluoro-4-(2-methyl-1H-pyrrol-1-yl)phenyl]-N-{[2-(1-hydroxycyclopropyl)pyridin-4-yl]methyl}acetamide]
COc1cc(CN(C(=O)Cc2ccc(-c3cccc(F)c3)cc2F)C2C=CS(=O)(=O)C2)ccn1 (stereo not shown) [I-91, 2-{3,3′-difluoro-[1,1′-biphenyl]-4-yl}-N-(1,1-dioxo-2,3-dihydro-1lambda6-thiophen-3-yl)-N-[(2-methoxypyridin-4-yl)methyl]acetamide]
COc1cc(CN(C(=O)C(OC)c2ccc(S(F)(F)(F)(F)F)cc2)C2C=CS(=O)(=O)C2)ccn1 (stereo not shown) [I-92, N-(1,1-dioxo-2,3-dihydro-1lambda6-thiophen-3-yl)-2-methoxy-N-[(2-methoxypyridin-4-yl)methyl]-2-[4-(pentafluoro-lambda6-sulfanyl)phenyl]acetamide]
COc1cc(CN(C(=O)C2Cc3cc(-n4cccc4)ccc32)C2C=CS(=O)(=O)C2)ccn1 (stereo not shown) [I-93, N-(1,1-dioxo-2,3-dihydro-1lambda6-thiophen-3-yl)-N-[(2-methoxypyridin-4-yl)methyl]-3-(1H-pyrrol-1-yl)bicyclo[4.2.0]octa-1,3,5-triene-7-carboxamide]
COc1cc(CN(C(=O)Cn2cc(-c3ccccc3)cn2)C2C=CS(=O)(=O)C2)ccn1 (stereo not shown) [I-94, N-(1,1-dioxo-2,3-dihydro-1lambda6-thiophen-3-yl)-N-[(2-methoxypyridin-4-yl)methyl]-2-(4-phenyl-1H-pyrazol-1-yl)acetamide]
COc1cc(CN(C(=O)Cc2ccc(-n3cccc3)cc2F)C2C=CS(=O)(=O)C2)ccn1 (stereo not shown) [I-95, N-(1,1-dioxo-2,3-dihydro-1lambda6-thiophen-3-yl)-2-[2-fluoro-4-(1H-pyrrol-1-yl)phenyl]-N-[(2-methoxypyridin-4-yl)methyl]acetamide]
Cc1cccn1-c1ccc(CC(=O)N(Cc2ccnc(N(C)C)c2)C2C=CS(=O)(=O)C2)c(F)c1 (stereo not shown) [I-96, N-{[2-(dimethylamino)pyridin-4-yl]methyl}-N-(1,1-dioxo-2,3-dihydro-1lambda6-thiophen-3-yl)-2-[2-fluoro-4-(2-methyl-1H-pyrrol-1-yl)phenyl]acetamide]
COc1cc(CN(C(=O)Cc2ccc(C3(C)CC3)cc2F)C2C=CS(=O)(=O)C2)ccn1 (stereo not shown) [I-97, N-(1,1-dioxo-2,3-dihydro-1lambda6-thiophen-3-yl)-2-[2-fluoro-4-(1-methylcyclopropyl)phenyl]-N-[(2-methoxypyridin-4-yl)methyl]acetamide]
CC(C)(O)c1cc(CN(C(=O)C2CNc3cc(-c4ccc(F)cc4)ccc32)C2C=CS(=O)(=O)C2)ccn1 (stereo not shown) [I-98, N-(1,1-dioxo-2,3-dihydro-1lambda6-thiophen-3-yl)-6-(4-fluorophenyl)-N-{[2-(2-hydroxypropan-2-yl)pyridin-4-yl]methyl}-2,3-dihydro-1H-indole-3-carboxamide]
CN(C)c1cc(CN(C(=O)Cc2ccc(-c3ccc(F)c(F)c3)cc2F)C2C=CS(=O)(=O)C2)ccn1 (stereo not shown) [I-99, N-{[2-(dimethylamino)pyridin-4-yl]methyl}-N-(1,1-dioxo-2,3-dihydro-1lambda6-thiophen-3-yl)-2-{3,3′,4′-trifluoro-[1,1′-biphenyl]-4-yl}acetamide]
Cc1cccn1-c1ccc(CC(=O)N(Cc2ccc(Br)cc2)C2C=CS(=O)(=O)C2)c(F)c1 (stereo not shown) [I-100, N-[(4-bromophenyl)methyl]-N-(1,1-dioxo-2,3-dihydro-1lambda6-thiophen-3-yl)-2-[2-fluoro-4-(2-methyl-1H-pyrrol-1-yl)phenyl]acetamide]
CC(C)(O)c1cc(CN(C(=O)Cc2ccc(-c3ccc(F)cc3)cc2Cl)C2C=CS(=O)(=O)C2)ccn1 (stereo not shown) [I-101, 2-{3-chloro-4′-fluoro-[1,1′-biphenyl]-4-yl}-N-(1,1-dioxo-2,3-dihydro-1lambda6-thiophen-3-yl)-N-{[2-(2-hydroxypropan-2-yl)pyridin-4-yl]methyl}acetamide]
COc1ccc2sc(CN(C(=O)Cc3ccc(-n4cccc4)cc3)C3C=CS(=O)(=O)C3)nc2c1 (stereo not shown) [I-102, N-(1,1-dioxo-2,3-dihydro-1lambda6-thiophen-3-yl)-N-[(5-methoxy-1,3-benzothiazol-2-yl)methyl]-2-[4-(1H-pyrrol-1-yl)phenyl]acetamide]
Cc1cccn1-c1ccc(CC(=O)N(Cc2ccnc3c2CCC3O)C2C=CS(=O)(=O)C2)c(F)c1 (stereo not shown) [I-103, N-(1,1-dioxido-2,3-dihydrothiophen-3-yl)-2-(2-fluoro-4-(2-methyl-1H-pyrrol-1-yl)phenyl)-N-((7-hydroxy-6,7-dihydro-5H-cyclopenta[b]pyridin-4-yl)methyl)acetamide]
CN(C)C(=O)C(C(=O)N(Cc1ccncc1)C1C=CS(=O)(=O)C1)c1ccc(-c2ccc(F)cc2)cc1 (stereo not shown) [I-104, N′-(1,1-dioxo-2,3-dihydro-1lambda6-thiophen-3-yl)-2-{4′-fluoro-[1,1′-biphenyl]-4-yl}-N,N-dimethyl-N′-[(pyridin-4-yl)methyl]propanediamide]
COc1cc(CN(C(=O)Cc2ccc(C(F)(F)F)cc2)C2C=CS(=O)(=O)C2)ccn1 (stereo not shown) [I-105, N-(1,1-dioxo-2,3-dihydro-1lambda6-thiophen-3-yl)-N-[(2-methoxypyridin-4-yl)methyl]-2-[4-(trifluoromethyl)phenyl]acetamide]
CC(C(=O)N(Cc1ccnc(C(C)(C)O)c1)[C@@H]1C=CS(=O)(=O)C1)n1cc(-c2ccc(F)cc2)cn1 (stereo partly drawn) [I-106, N-[(3R)-1,1-dioxo-2,3-dihydro-1lambda6-thiophen-3-yl]-2-[4-(4-fluorophenyl)-1H-pyrazol-1-yl]-N-{[2-(2-hydroxypropan-2-yl)pyridin-4-yl]methyl}propanamide]
CN(C)C(=O)C(C(=O)N(Cc1nc(C2CC2)cs1)C1C=CS(=O)(=O)C1)c1ccc(S(F)(F)(F)(F)F)cc1 (stereo not shown) [I-107, N′-[(4-cyclopropyl-1,3-thiazol-2-yl)methyl]-N′-(1,1-dioxo-2,3-dihydro-1lambda6-thiophen-3-yl)-N,N-dimethyl-2-[4-(pentafluoro-lambda6-sulfanyl)phenyl]propanediamide]
CC(C)(O)c1cc(CN(C(=O)Cn2cc(-c3ccccc3F)cn2)C2C=CS(=O)(=O)C2)ccn1 (stereo not shown) [I-108, N-(1,1-dioxo-2,3-dihydro-1lambda6-thiophen-3-yl)-2-[4-(2-fluorophenyl)-1H-pyrazol-1-yl]-N-{[2-(2-hydroxypropan-2-yl)pyridin-4-yl]methyl}acetamide]
COc1cc(CN(C(=O)C2Cc3cc(-n4cccc4C)ccc3O2)C2C=CS(=O)(=O)C2)ccn1 (stereo not shown) [I-109, N-(1,1-dioxido-2,3-dihydrothiophen-3-yl)-N-((2-methoxypyridin-4-yl)methyl)-5-(2-methyl-1H-pyrrol-1-yl)-2,3-dihydrobenzofuran-2-carboxamide]
O=C(Cc1ccc(-c2ccc(F)cc2)cc1F)N(Cc1ccnc(OC2CC2)c1)C1C=CS(=O)(=O)C1 (stereo not shown) [I-110, N-[(2-cyclopropoxypyridin-4-yl)methyl]-2-{3,4′-difluoro-[1,1′-biphenyl]-4-yl}-N-(1,1-dioxo-2,3-dihydro-1lambda6-thiophen-3-yl)acetamide]
O=C(Cc1ccc(-n2cccc2)cc1)N(Cc1nc(C2CC2)cs1)C1C=CS(=O)(=O)C1 (stereo not shown) [I-111, N-[(4-cyclopropyl-1,3-thiazol-2-yl)methyl]-N-(1,1-dioxo-2,3-dihydro-1lambda6-thiophen-3-yl)-2-[4-(1H-pyrrol-1-yl)phenyl]acetamide]
COc1nccc(CN(C(=O)Cc2ccc(-n3cccc3C)cc2F)C2C=CS(=O)(=O)C2)n1 (stereo not shown) [I-112, N-(1,1-dioxo-2,3-dihydro-1lambda6-thiophen-3-yl)-2-[2-fluoro-4-(2-methyl-1H-pyrrol-1-yl)phenyl]-N-[(2-methoxypyrimidin-4-yl)methyl]acetamide]
CCOC(C(=O)N(Cc1ccnc(OC)c1)C1C=CS(=O)(=O)C1)c1ccc(-c2ccc(F)cc2)cc1 (stereo not shown) [I-113, N-(1,1-dioxo-2,3-dihydro-1lambda6-thiophen-3-yl)-2-ethoxy-2-{4′-fluoro-[1,1′-biphenyl]-4-yl}-N-[(2-methoxypyridin-4-yl)methyl]acetamide]
COc1cc(CN(C(=O)C2Cc3cc(C(F)(F)F)ccc3O2)[C@@H]2C=CS(=O)(=O)C2)ccn1 (stereo partly drawn) [I-114, N-[(3R)-1,1-dioxo-2,3-dihydro-1lambda6-thiophen-3-yl]-N-[(2-methoxypyridin-4-yl)methyl]-5-(trifluoromethyl)-2,3-dihydro-1-benzofuran-2-carboxamide]
O=C(Cc1ccc(-c2ccc(F)cc2)cc1F)N(Cc1ccncc1)C1C=CS(=O)(=O)C1 (stereo not shown) [I-115, 2-{3,4′-difluoro-[1,1′-biphenyl]-4-yl}-N-(1,1-dioxo-2,3-dihydro-1lambda6-thiophen-3-yl)-N-[(pyridin-4-yl)methyl]acetamide]
